Results reported in US20240016781A1, “TREATMENT OF KRAS MUTANT CANCERS” (MEI Pharma, Inc., priority 2020, published 2024).
Where two headings read alike, the source gives them in different places.

Tests used:
[1] = PK of voruciclib, 2 weeks of daily dosing followed by 1 week without dosing in a 21-day cycle (Table 3); type: in vivo, human; conditions: for Accumulation Ratio (AUC0-24 h): Day 13/Day 1, 2 weeks daily dosing/1 week off; for AUC(0-inf) / Cmax / half-life / AUC(0-t) / Vd/F / Tmax: human, plasma, oral; for Vd/F: read-out: Vz/F; for Tmax: median
Excerpt: Voruciclib half life is designated as t½ in the tables (expressed in hours).
Voruciclib volume of distribution is designated as Vz/F (expressed in liters).

[2] = SCID, mouse, in vivo, po, 100 mg/kg
Method: Animals were randomized into 2 groups when tumors reached 100 mm diameter. Group A assigned single dosing. […] Drug concentration was measured in tumor and plasma after last dose at the following time points: 0, 4, 8, 24, 48, 72 hrs. […] Concentration of voruciclib in plasma is in units of μg/ml and in μg/g for tumors.

[3] = system: Solid Tumors; assay: Monotherapy Phase 1 study in solid tumors, 2 weeks on/1 week off schedule; type: in vivo, human
[4] = 75 mg, Day 1, 2 weeks daily dosing/1 week off, mean
[5] = 75 mg, Day 13, 2 weeks daily dosing/1 week off, mean
[6] = 150 mg, Day 1, 2 weeks daily dosing/1 week off, mean
[7] = 150 mg, Day 13, 2 weeks daily dosing/1 week off, mean
[8] = 300 mg, Day 1, 2 weeks daily dosing/1 week off, mean
[9] = 300 mg, Day 13, 2 weeks daily dosing/1 week off, n = 1
[10] = 600 mg, Day 1, 2 weeks daily dosing/1 week off, mean
[11] = 600 mg, Day 13, 2 weeks daily dosing/1 week off, mean
[12] = 850 mg, Day 1, 2 weeks daily dosing/1 week off, mean
[13] = 850 mg, Day 13, 2 weeks daily dosing/1 week off, mean
[14] = 2 weeks on/i week off schedule, 75 to 850 mg, 29 pts
[15] = Phase 1 monotherapy studies in solid tumors (both schedules)

For `CN1CC[C@@H](c2c(O)cc(O)c3c(=O)cc(-c4ccc(C(F)(F)F)cc4Cl)oc23)[C@@H]1CO` [Voruciclib, (+)-trans-2-(2-Chloro-4-trifluoromethylphenyl)-5,7-dihydroxy-8-(2-hydroxymethyl-1-methylpyrrolidin-3-yl)-chromen-4-one], the “Accumulation Ratio (AUC0-24 h)” value ([1]; 75 mg, mean) was 2.937, the “Accumulation Ratio (AUC0-24 h)” value ([1]; 150 mg, mean) was 2.129 and the “Accumulation Ratio (AUC0-24 h)” value ([1]; 300 mg, mean) was 2.602. The “Accumulation Ratio (AUC0-24 h)” value ([1]; 600 mg, mean) was 2.064, the “Accumulation Ratio (AUC0-24 h)” value ([1]; 850 mg, mean) was 3.139 and the AUC(0-inf) [1, 4] was 4210 ng·h/mL. It also gave a Cmax [1, 4] of 193 ng/mL, a half-life [1, 4] of 21.7 h and an AUC(0-t) ([1]; 75 mg, Day 1, 2 weeks daily dosing/1 week off, mean, read-out: AUC0-24) of 2280 ng·h/mL. It also gave an AUC(0-t) ([1]; 75 mg, Day 1, 2 weeks daily dosing/1 week off, mean, read-out: AUC0-t) of 2280 ng·h/mL, a Vd/F [1, 4] of 1280 L and a Tmax ([1]; 75 mg, Day 1, 2 weeks daily dosing/1 week off) of 4 h. For the same molecule, the AUC(0-inf) [1, 5] was 8660 ng·h/mL, the Cmax [1, 5] was 313 ng/mL and the half-life [1, 5] was 16.9 h. It also gave an AUC(0-t) ([1]; 75 mg, Day 13, 2 weeks daily dosing/1 week off, mean, read-out: AUC0-24) of 5290 ng·h/mL, an AUC(0-t) ([1]; 75 mg, Day 13, 2 weeks daily dosing/1 week off, mean, read-out: AUC0-t) of 5290 ng·h/mL and a Vd/F [1, 5] of 349 L. The Tmax ([1]; 75 mg, Day 13, 2 weeks daily dosing/1 week off) was 4 h, the AUC(0-inf) [1, 6] was 15800 ng·h/mL and the Cmax [1, 6] was 456 ng/mL. It also gave a half-life [1, 6] of 32.5 h, an AUC(0-t) ([1]; 150 mg, Day 1, 2 weeks daily dosing/1 week off, mean, read-out: AUC0-24) of 6980 ng·h/mL and an AUC(0-t) ([1]; 150 mg, Day 1, 2 weeks daily dosing/1 week off, mean, read-out: AUC0-t) of 6980 ng·h/mL. The Vd/F [1, 6] was 1650 L, the Tmax ([1]; 150 mg, Day 1, 2 weeks daily dosing/1 week off) was 4 h and the AUC(0-inf) [1, 7] was 28200 ng·h/mL. It also gave a Cmax [1, 7] of 896 ng/mL, a half-life [1, 7] of 26.1 h and an AUC(0-t) ([1]; 150 mg, Day 13, 2 weeks daily dosing/1 week off, mean, read-out: AUC0-24) of 13000 ng·h/mL. The AUC(0-t) ([1]; 150 mg, Day 13, 2 weeks daily dosing/1 week off, mean, read-out: AUC0-t) was 13000 ng·h/mL, the Vd/F [1, 7] was 459 L and the Tmax ([1]; 150 mg, Day 13, 2 weeks daily dosing/1 week off) was 4 h. The AUC(0-inf) [1, 8] was 148000 ng·h/mL, the Cmax [1, 8] was 1000 ng/mL and the half-life [1, 8] was 138 h. For the same molecule, the AUC(0-t) ([1]; 300 mg, Day 1, 2 weeks daily dosing/1 week off, mean, read-out: AUC0-24) was 15700 ng·h/mL, the AUC(0-t) ([1]; 300 mg, Day 1, 2 weeks daily dosing/1 week off, mean, read-out: AUC0-t) was 15700 ng·h/mL and the Vd/F [1, 8] was 3980 L. For the same molecule, the Tmax ([1]; 300 mg, Day 1, 2 weeks daily dosing/1 week off) was 6 h, the Cmax ([1]; 300 mg, Day 13, 2 weeks daily dosing/1 week off, mean) was 2100 ng/mL and the AUC(0-t) ([1]; 300 mg, Day 13, 2 weeks daily dosing/1 week off, mean, read-out: AUC0-24) was 40400 ng·h/mL. The AUC(0-t) ([1]; 300 mg, Day 13, 2 weeks daily dosing/1 week off, mean, read-out: AUC0-t) was 40400 ng·h/mL, the Tmax ([1]; 300 mg, Day 13, 2 weeks daily dosing/1 week off) was 12 h and the AUC(0-inf) [1, 9] was 59300 ng·h/mL. It also gave a half-life [1, 9] of 16.2 h, a Vd/F [1, 9] of 185 L and an AUC(0-inf) [1, 10] of 61500 ng·h/mL. It also gave a Cmax [1, 10] of 1630 ng/mL, a half-life [1, 10] of 32.5 h and an AUC(0-t) ([1]; 600 mg, Day 1, 2 weeks daily dosing/1 week off, mean, read-out: AUC0-24) of 24800 ng·h/mL. It also gave an AUC(0-t) ([1]; 600 mg, Day 1, 2 weeks daily dosing/1 week off, mean, read-out: AUC0-t) of 24800 ng·h/mL, a Vd/F [1, 10] of 1550 L and a Tmax ([1]; 600 mg, Day 1, 2 weeks daily dosing/1 week off) of 4 h. The AUC(0-inf) [1, 11] was 86000 ng·h/mL, the Cmax [1, 11] was 2940 ng/mL and the half-life [1, 11] was 19 h. The AUC(0-t) ([1]; 600 mg, Day 13, 2 weeks daily dosing/1 week off, mean, read-out: AUC0-24) was 43500 ng·h/mL, the AUC(0-t) ([1]; 600 mg, Day 13, 2 weeks daily dosing/1 week off, mean, read-out: AUC0-t) was 43500 ng·h/mL and the Vd/F [1, 11] was 394 L. For the same molecule, the Tmax ([1]; 600 mg, Day 13, 2 weeks daily dosing/1 week off) was 4 h, the AUC(0-inf) [1, 12] was 109000 ng·h/mL and the Cmax [1, 12] was 1730 ng/mL. The half-life [1, 12] was 50 h, the AUC(0-t) ([1]; 850 mg, Day 1, 2 weeks daily dosing/1 week off, mean, read-out: AUC0-24) was 31400 ng·h/mL and the AUC(0-t) ([1]; 850 mg, Day 1, 2 weeks daily dosing/1 week off, mean, read-out: AUC0-t) was 31400 ng·h/mL. For the same molecule, the Vd/F [1, 12] was 2150 L, the Tmax ([1]; 850 mg, Day 1, 2 weeks daily dosing/1 week off) was 9 h and the AUC(0-inf) [1, 13] was 170000 ng·h/mL. The Cmax [1, 13] was 4450 ng/mL, the half-life [1, 13] was 22.4 h and the AUC(0-t) ([1]; 850 mg, Day 13, 2 weeks daily dosing/1 week off, mean, read-out: AUC0-24) was 83900 ng·h/mL. For the same molecule, the AUC(0-t) ([1]; 850 mg, Day 13, 2 weeks daily dosing/1 week off, mean, read-out: AUC0-t) was 83900 ng·h/mL, the Vd/F [1, 13] was 315 L and the Tmax ([1]; 850 mg, Day 13, 2 weeks daily dosing/1 week off) was 5 h. For the same molecule, the “voruciclib level in tumor at 8 hours compared to 24 hours post dosing” value [2] was > 5 fold, the best response [3, 14] was 1 PR and 8 SD lasting 2 to 6 months and the disease control rate [3, 14] was 41%. The “most common AEs” value [3, 15] was “most common AEs involved GI tract” and the myelosuppression [3, 15] was “no evidence of myelosuppression”.
